Assay results published in patent US20260217701A1, “SELECTIVE BET INHIBITORS AND USES THEREOF” (Tay Therapeutics Limited, priority 2022, published 2026).

Assay: Dog PK study #4 (Compound A PO daily 14 days, 1/3/10 mg/kg; toxicokinetics, platelet counts)
Assay type: in vivo, beagle dogs
Details: for Mean Platelet Count: Day 15 following 14 days of administration; for concentration at 0.5 h / concentration at 1 h / concentration at 2 h / concentration at 4 h / concentration at 8 h / concentration at 24 h: beagle, dog, plasma, oral, after daily administration for 14 days
Method: The different doses of compound A were orally administered to animals (n=2/group, one male and one female animal) daily for 14 days.
Blood samples were collected at 0.5, 1, 2, 4, 8, and 24 hours after administration of Compound A on Day 14, and EDTA-K2 was used as an anticoagulant. Within 30 minutes of collection, the samples were centrifuged at approximately 2000×g for 10 minutes at 4° C. to obtain blood plasma. The samples were immediately divided into aliquots, transferred to cryogenic vials, and stored in a freezer at −75+15° C. prior to analysis.
The concentration of Compound A in the blood plasma was determined through liquid chromatography-mass spectrometry (LC-MS). The experiments were conducted on a Shimadzu UPLC and AB API 6500+LC/MS/MS with a Water […] UPLC HSS T3 1.8 μm (50×2.1 mm) column. A gradient of 0.1% formic acid in water/0.1% formic acid in acetonitrile was used as the mobile phase. The sample injection volume was 1 μL. The flow rate was 0.6 mL/min.
The desired serial concentrations of working solutions were achieved by diluting 30 μL of sample (control standard, QC standard, test samples) with 30 μL of a 50% acetonitrile in water solution (for double blanks) or 30 μL of the IS mixture (Compound B 80 ng/ml in 50% acetonitrile). 240 μL of 100% acetonitrile was then added and samples were vortexed for 5 min and centrifuged at 3200×g at 4° C. for 10 min. 100 μL of the supernatant was transferred and then diluted with 50% acetonitrile. Samples were then vortexed for about 5 min before injection into the LC/MS/MS system for quantitative analysis.

[1] = both sexes, 1 mg/kg, Pooled Mean
[2] = both sexes, 3 mg/kg, Pooled Mean
[3] = both sexes, 10 mg/kg, Pooled Mean

Compound: Cn1cc(-c2ccccc2)c(-c2cn(C)c(=O)c3[nH]c(-c4cnn(C(F)(F)F)c4)cc23)cc1=O [Compound A, 6-methyl-4-(1-methyl-2-oxo-5-phenyl-1,2-dihydropyridin-4-yl)-2-(1-(trifluoromethyl)-1H-pyrazol-4-yl)-1,6-dihydro-7H-pyrrolo[2,3-c]pyridin-7-one]
- exposure difference between male and female animals (Day 14): no exposure differences
- plasma concentration relative to BD2 BRD4 and BD1 BRD4 free EC50 (Day 14, 1, 3 and 10 mg/kg, all time points over 24 hours): remained well above the BD2 BRD4 EC50
- time of peak (or plateau) plasma concentration (Day 14, all animals): approximately 2 hours
- platelet counts relative to vehicle (Day 15, after 14 days of 1, 3 or 10 mg/kg): no appreciable difference in platelet counts
- Mean Platelet Count (1 mg/kg): 260750 µL⁻¹
- Mean Platelet Count (3 mg/kg): 241000 µL⁻¹
- Mean Platelet Count (10 mg/kg): 293000 µL⁻¹
- concentration at 0.5 h (1 mg/kg, Female): 27.8 ng/mL
- concentration at 1 h (1 mg/kg, Female): 57.9 ng/mL
- concentration at 2 h (1 mg/kg, Female): 70.1 ng/mL
- concentration at 4 h (1 mg/kg, Female): 55.9 ng/mL
- concentration at 8 h (1 mg/kg, Female): 25.7 ng/mL
- concentration at 24 h (1 mg/kg, Female): 10.3 ng/mL
- concentration at 0.5 h (1 mg/kg, Male): 31.6 ng/mL
- concentration at 1 h (1 mg/kg, Male): 56.7 ng/mL
- concentration at 2 h (1 mg/kg, Male): 60.8 ng/mL
- concentration at 4 h (1 mg/kg, Male): 44.8 ng/mL
- concentration at 8 h (1 mg/kg, Male): 24.5 ng/mL
- concentration at 24 h (1 mg/kg, Male): 25.1 ng/mL
- concentration at 0.5 h (3 mg/kg, Female): 152 ng/mL
- concentration at 1 h (3 mg/kg, Female): 324 ng/mL
- concentration at 2 h (3 mg/kg, Female): 320 ng/mL
- concentration at 4 h (3 mg/kg, Female): 230 ng/mL
- concentration at 8 h (3 mg/kg, Female): 87.5 ng/mL
- concentration at 24 h (3 mg/kg, Female): 14.2 ng/mL
- concentration at 0.5 h (3 mg/kg, Male): 98.3 ng/mL
- concentration at 1 h (3 mg/kg, Male): 201 ng/mL
- concentration at 2 h (3 mg/kg, Male): 265 ng/mL
- concentration at 4 h (3 mg/kg, Male): 245 ng/mL
- concentration at 8 h (3 mg/kg, Male): 165 ng/mL
- concentration at 24 h (3 mg/kg, Male): 33 ng/mL
- concentration at 0.5 h (10 mg/kg, Female): 1130 ng/mL
- concentration at 1 h (10 mg/kg, Female): 1630 ng/mL
- concentration at 2 h (10 mg/kg, Female): 1680 ng/mL
- concentration at 4 h (10 mg/kg, Female): 1070 ng/mL
- concentration at 8 h (10 mg/kg, Female): 342 ng/mL
- concentration at 24 h (10 mg/kg, Female): 61.6 ng/mL
- concentration at 0.5 h (10 mg/kg, Male): 1010 ng/mL
- concentration at 1 h (10 mg/kg, Male): 1450 ng/mL
- concentration at 2 h (10 mg/kg, Male): 1490 ng/mL
- concentration at 4 h (10 mg/kg, Male): 1350 ng/mL
- concentration at 8 h (10 mg/kg, Male): 646 ng/mL
- concentration at 24 h (10 mg/kg, Male): 145 ng/mL
- concentration at 0.5 h [1]: 29.7 ng/mL
- concentration at 1 h [1]: 57.3 ng/mL
- concentration at 2 h [1]: 65.5 ng/mL
- concentration at 4 h [1]: 50.4 ng/mL
- concentration at 8 h [1]: 25.1 ng/mL
- concentration at 24 h [1]: 17.7 ng/mL
- concentration at 0.5 h [2]: 125 ng/mL
- concentration at 1 h [2]: 262 ng/mL
- concentration at 2 h [2]: 292 ng/mL
- concentration at 4 h [2]: 238 ng/mL
- concentration at 8 h [2]: 126 ng/mL
- concentration at 24 h [2]: 23.6 ng/mL
- concentration at 0.5 h [3]: 1070 ng/mL
- concentration at 1 h [3]: 1540 ng/mL
- concentration at 2 h [3]: 1580 ng/mL
- concentration at 4 h [3]: 1210 ng/mL
- concentration at 8 h [3]: 494 ng/mL
- concentration at 24 h [3]: 103 ng/mL
